According to ChEMBL document CHEMBL4680348, “1,2,4-Thiadiazole acyclic nucleoside phosphonates as inhibitors of cysteine dependent enzymes cathepsin K and GSK-3β” (Bioorg Med Chem, 2021):

Assays:
HepG2 [1] = test: Cytotoxicity against human HepG2 cells assessed as cell viability at 100 uM incubated for 72 hrs by CellTiter-Glo luminescence based assay; assay type: functional; details: read-out: Activity
[2] = molecular target: T1, Cathepsin K (Homo sapiens) (UniProt P43235); test: Inhibition of recombinant human Cathepsin K expressed in Pichia pastoris X-33 assessed as residual activity at 10 uM using Z-Gly-Pro-Arg-AMC as substrate preincubated for 10 mins followed by substrate addition measured after 30 mins by fluorescence based microplate reader assay; details: time 40.0 min
T1 sequence (whole entry): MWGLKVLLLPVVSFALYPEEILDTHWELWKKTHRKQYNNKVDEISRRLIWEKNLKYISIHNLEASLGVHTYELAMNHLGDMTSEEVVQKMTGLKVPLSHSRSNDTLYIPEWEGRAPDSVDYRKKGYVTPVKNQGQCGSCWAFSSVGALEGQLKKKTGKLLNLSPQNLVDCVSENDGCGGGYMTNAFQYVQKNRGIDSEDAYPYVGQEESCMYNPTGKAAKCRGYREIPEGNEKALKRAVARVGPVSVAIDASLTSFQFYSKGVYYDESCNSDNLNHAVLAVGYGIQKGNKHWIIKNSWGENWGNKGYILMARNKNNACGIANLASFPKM

SH-SY5Y [3] = test: Cytotoxicity against human SH-SY5Y cells assessed as cell viability at 10 uM incubated for 72 hrs by CellTiter-Glo luminescence based assay; assay type: functional; details: read-out: Activity
[4] = molecular target: Glycogen synthase kinase-3 beta (Homo sapiens, UniProt P49841); test: Inhibition of human recombinant GSK3beta using GSK3 peptide as substrate preincubated for 15 mins followed by ATP addition and measured after 90 mins by ADP-Glo kinase assay
HeLa S3 [5] = test: Cytotoxicity against human HeLa S3 cells assessed as cell viability at 10 uM incubated for 72 hrs by CellTiter-Glo luminescence based assay; assay type: functional; details: read-out: Activity
[6] = Cytotoxicity against human NHDF cells assessed as cell viability at 100 uM incubated for 72 hrs by CellTiter-Glo luminescence based assay; details: read-out: Activity
HL-60 [7] = test: Cytotoxicity against human HL-60 cells assessed as cell viability at 10 uM incubated for 72 hrs by CellTiter-Glo luminescence based assay; assay type: functional; details: read-out: Activity
CCRF-CEM [8] = test: Cytotoxicity against human CCRF-CEM cells assessed as cell viability at 10 uM incubated for 72 hrs by CellTiter-Glo luminescence based assay; assay type: functional; details: read-out: Activity
HL-60 [9] = test: Cytotoxicity against human HL-60 cells assessed as cell viability at 100 uM incubated for 72 hrs by CellTiter-Glo luminescence based assay; assay type: functional; details: read-out: Activity
Cathepsin K = molecular target: T2, Cathepsin K (Homo sapiens, UniProt P43235); test: Inhibition of recombinant human Cathepsin K expressed in Pichia pastoris X-33 using Z-Gly-Pro-Arg-AMC as substrate preincubated for 10 mins followed by substrate addition measured after 30 mins by fluorescence based microplate reader assay
T2 sequence (P43235 whole entry): T1 sequence (whole entry)

HepG2 [10] = test: Cytotoxicity against human HepG2 cells assessed as cell viability at 10 uM incubated for 72 hrs by CellTiter-Glo luminescence based assay; assay type: functional; details: read-out: Activity
CCRF-CEM [11] = test: Cytotoxicity against human CCRF-CEM cells assessed as cell viability at 100 uM incubated for 72 hrs by CellTiter-Glo luminescence based assay; assay type: functional; details: read-out: Activity
HeLa S3 [12] = test: Cytotoxicity against human HeLa S3 cells assessed as cell viability at 100 uM incubated for 72 hrs by CellTiter-Glo luminescence based assay; assay type: functional; details: read-out: Activity
SH-SY5Y [13] = test: Cytotoxicity against human SH-SY5Y cells assessed as cell viability at 100 uM incubated for 72 hrs by CellTiter-Glo luminescence based assay; assay type: functional; details: read-out: Activity
[14] = Cytotoxicity against human NHDF cells assessed as cell viability at 10 uM incubated for 72 hrs by CellTiter-Glo luminescence based assay; details: read-out: Activity

Sequence of Glycogen synthase kinase-3 beta (P49841 whole entry): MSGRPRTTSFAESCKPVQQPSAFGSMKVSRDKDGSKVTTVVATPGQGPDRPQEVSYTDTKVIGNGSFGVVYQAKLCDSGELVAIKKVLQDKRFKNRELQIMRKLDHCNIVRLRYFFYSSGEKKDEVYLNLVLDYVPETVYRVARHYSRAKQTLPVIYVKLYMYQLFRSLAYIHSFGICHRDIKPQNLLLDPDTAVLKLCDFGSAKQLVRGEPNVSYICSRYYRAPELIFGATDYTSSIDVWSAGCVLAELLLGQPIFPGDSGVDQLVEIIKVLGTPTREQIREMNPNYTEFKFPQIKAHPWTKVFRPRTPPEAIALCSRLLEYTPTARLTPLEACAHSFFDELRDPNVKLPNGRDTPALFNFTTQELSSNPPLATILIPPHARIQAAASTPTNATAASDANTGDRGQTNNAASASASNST

SMILES	viability at 100 µM (HepG2 [1])	Activity [2]	viability at 10 µM (SH-SY5Y [3])	IC50 [4]	viability at 10 µM (HeLa S3 [5])	viability at 72 h, 100 µM [6]	viability at 10 µM (HL-60 [7])	viability at 10 µM (CCRF-CEM [8])	viability at 100 µM (HL-60 [9])	IC50 (Cathepsin K)	viability at 10 µM (HepG2 [10])	viability at 100 µM (CCRF-CEM [11])	viability at 100 µM (HeLa S3 [12])	viability at 100 µM (SH-SY5Y [13])	viability at 72 h, 10 µM [14]
CC(C)OP(=O)(CO[C@H](CO)Cn1sc(NC(=O)OCC2c3ccccc3-c3ccccc32)nc1=O)OC(C)C	92%	34.1%	102%	> 10 µM	99%	100%	103%	82%	110%	9.25 µM	102%	82%	100%	85%	98%
CN(C)/C=N/c1nc(=O)n(C[C@H](O)COC(c2ccccc2)(c2ccccc2)c2ccccc2)s1	1%	28.3%	67%	> 10 µM	80%	1%	64%	15%	2%	10.1 µM	87%	1%	1%	3%	77%
CCOC(=O)Nc1nc(=O)n(CCOCP(=O)(O)O)s1	97%	39.1%	103%	> 10 µM	94%	97%	96%	74%	100%	10.1 µM	98%	77%	96%	105%	94%
Nc1nc(=O)[nH]s1	54%	16.9%	99%	> 10 µM	100%	49%	98%	120%	95%	6.34 µM	87%	4%	87%	56%	101%
CCOC(=O)Nc1nc(=O)n(C[C@@H](CO)OCP(=O)(O)O)s1	89%	97.5%	100%	> 10 µM	97%	99%	95%	94%	99%		99%	114%	94%	99%	101%
O=C(Nc1nc(=O)n(C[C@@H](CO)OCP(=O)(O)O)s1)c1ccccc1	100%	92.3%	101%	> 10 µM	97%	98%	103%	72%	106%		101%	61%	101%	103%	105%
CC(C)OP(=O)(COCCOc1nsc(N)n1)OC(C)C	99%	78.3%	98%	> 10 µM	97%	114%	103%	114%	108%		100%	103%	98%	55%	104%
CN(C)/C=N/c1nc(OC[C@H](O)COC(c2ccccc2)(c2ccccc2)c2ccccc2)ns1	1%	5.3%	99%	> 10 µM	91%	1%	86%	101%	1%	2.63 µM	92%	2%	2%	2%	97%
O=C(/N=c1\s[nH]c(=O)n1C[C@H](O)COC(c1ccccc1)(c1ccccc1)c1ccccc1)c1ccccc1	37%	34.2%	96%	> 10 µM	45%	79%	93%	81%	9%	14.9 µM	91%	5%	3%	34%	98%
O=C(Nc1nc(=O)n(CCOCP(=O)(O)O)s1)OCC1c2ccccc2-c2ccccc21	103%	67%	102%	> 10 µM	97%	84%	102%	85%	106%		105%	90%	102%	99%	93%
